Like-named read-outs stand apart in the source and are kept apart here. Some results are limits rather than exact numbers.

One series has as its target T1, LasR receptor (Pseudomonas aeruginosa, UniProt P25084).
T1 construct: expressed in transfected cells; host or cells: Escherichia coli carrying plasmid pSB1075
In words: Activation of the LasR receptor on bacterial reporter strain E. coli pSB1075 (bioluminescence). The series is classed as cell-based. The source says: 1.1.3. The Bacterial Reporter Strain E. coli pSB1075 • A bacterial reporter strain of the Quorum Sensing was used to study the ability of the molecules to be recognized by the Pseudomonas aeruginosa AHL receptor (LasR) and induce an activation. […] This bioluminescent strain was modified by addition of a plasmid pSB1075. This plasmid contains genes encoding both tetracycline resistance and the expression of the LasR AHL receptor from the Pseudomonas aeruginosa bacteria, as well as a fusion gene derived from the LasR promoter and the luxCDABE gene from Photorhabdus luminescence. The bacterial strain was grown in the LB medium supplemented with 5 μg/ml tetracycline to exert a selection pressure and ensure that only the desired strain was amplified. The fusion gene included in the plasmid gives the bacteria the ability to emit a bioluminescence when the LasR receptor is activated, and provides the user with a robust test for the molecular screening. […] On day 1, the culture was diluted 1:100 (P1) in 10 ml of LB medium supplemented with 5 μg/ml tetracycline and maintained for 24 hours at 37° C. under stirring at 70 rpm. On day 2, the experiment took place: a bacterial suspension extemporaneously diluted 1:10 in LB medium supplemented with 5 μg/ml tetracycline (P2) was dispensed into a black opaque 96-well plate and incubated for 4 hours with a range of AHL concentrations or controls until the resulting luminescence was read at the end point. All experiments were performed in triplicates.
1.3. […] This bioluminescent strain was developed by the addition of a plasmid pSB1075 containing genes encoding the tetracycline resistance and the expression of the LasR AHL receptor, as well as a fusion gene of the LasR promoter and the luxCDABE gene of Photorhabdus luminescence. • On day 1, a 1/100 dilution of the bacterial strain (P1) was grown for 24 hours at 37° C. under stirring (70 rpm) in a LB medium containing 5 μg/ml tetracycline (pressure selective). On day 2, P1 was diluted 1:10 in the same medium to obtain P2. In a black 96-well plate were placed 200 μL of P2 and 10 μL of the short chain compound (medium, water and DMSO for the negative controls, C4-HSL as positive control, and the test sample at the desired concentration). The plate was incubated for 4 hours at 37° C. under stirring at 70 rpm. […] After that, the incubation was continued according to the conventional protocol, with the test compound at the desired concentrations.

The test system of the next series is E. coli K12 strain. In words: Bactericidal dosage on the E. coli K12 strain (absorbance at 600 nm). Conditions: for comparative survival of E. coli K12: all concentrations, maximum 100 μM shown, 18 h. The series is classed as cell-based. Here is the method: 1.1.4. Bactericidal Dosage • The K12 strain of E. coli was grown on agar on day 0 and a colony was transferred to the LYBHI liquid bacterial culture medium on day 1. On day 2, the colony was diluted 1:100 in LYBHI medium and amplified for 18 hours before transfer to an opaque 96-well plate. In each well, LYBHI, controls or increasing doses of tested molecules and bacteria were distributed. The absorbance at 600 nm was read at start-up (t=0) and after an 18-hour incubation. The raw absorbance values were corrected using the absorbance of solutions without bacteria. All experiments were performed twice, each with 4 replicates.
The E. coli K12 strain was cultured at D0 on agar gel, and then a selected colony was transferred to a liquid bacterial culture LYBHI medium at D1. At day 2, this colony was diluted 1:100 in LYBHI medium, and maintained for 18 hours for expansion before distribution in an opaque 96-well plate. In each well were distributed: LYBHI medium, bacterial culture, and test or control compounds. The absorbance of the wells was read at 600 nm at t0 and t18h. The raw absorbance values were corrected against the absorbance of the wells containing only LYBHI medium without bacteria or compounds.

Series [1] concerns Caco-2/TC7 cells. In words: Stimulation of Caco-2/TC7 cells by IL-1β, IL-8 secretion (ELISA). It counts as cell-based, human. The source says:
1.1.1. The Caco-2/TC7 Cell Line • The Caco-2 cell line is derived from a human colon adenocarcinoma and represents a cell culture model of enterocytes lining the epithelium of the small intestinal. […] During the exponential growth phase (from seeding to confluence), the cells remain undifferentiated. At confluence, they can spontaneously (in the absence of differentiation inducers) differentiate and progressively polarize. The differentiation process, which is a growth-related mechanism, is maximal at the end of confluence (stationary phase of the growth curve). • The cells develop a brush border at the apical pole containing microvilli and with characteristic enterocytic enzymes, such as hydrolases. • In accordance with the published literature, the Caco-2/TC7 cells in our experiments were seeded at 10^5 cells/well (equivalent to 10-12×10^3 cells/cm^2) in 6-well plastic culture plates. The cells were maintained in a glucose-rich medium (high glucose in the DMEM GlutaMAX medium 4.5 g/I glucose) supplemented with 20% heat-inactivated foetal calf serum, 1% nonessential amino acids NEAA, and 1% penicillin streptomycin. The cells were grown at 37° C. in a 10% CO2/air atmosphere. The medium was changed every day. Under these conditions, the cells were confluent on day 6. On day 17, the cells were serum-starved, and were used on day 18.
1.2.1. Stimulation of Caco-2/TC7 with Cytokines • The Caco-2/TC7 cells were seeded in 6-well plates at 100,000 cells/well and grown for 18 days. On day 17, the cells were serum-starved, which means that the cell medium was replaced with a foetal calf serum-free medium, and used on day 18. • The stimulation medium was composed of a medium referred to as “starvation medium”, i.e. without foetal calf serum (DMEM GlutaMAX, 1% NEAA, 1% penicillin-streptomycin) with 100 μM of 2-HQ. The cells were incubated for 18 h at 37° C. with 2 ml of stimulation medium containing 0.1% DMSO (negative control) or stimulation medium containing the compounds tested at desired concentrations, with or without proinflammatory cytokines to induce an inflammation. To induce the inflammation, either the IL-1β at 25 ng/ml or the combination of TNF-α and IFN-γ at 50 ng/ml each were used. After 18 h, the supernatants were collected and stored at −80° C. before analysis by ELISA test. The cells were washed with 1 ml of PBS 1×/well, and lysed in 100 μl of PBS 1× containing 1% Triton X-100. The cells were harvested by scraping and stored at −80° C. before the quantification of the protein. The dosing of the LDH was performed immediately before freezing. • All the experiments on the cells were performed in triplicates.
1.2.4. Quantification of the Human Cytokines by ELISA • The levels of the proinflammatory cytokine IL-8 produced by the cells were determined in the cell supernatants and/or cell lysates using the commercially available IL-8 ELISA detection kit (Duoset Human C×CL8/IL-8, ref. DY208) provided by R & D Systems (Minneapolis, Minn., USA) according to the instructions of the manufacturer. • All the cytokine levels were first normalized to the protein content determined in the corresponding cell lysates. Then, to compare the experiments, they could be further normalized using the activated control condition (DMSO+cytokines) as the 100% response.

Series [2] has as its system Caco-2/TC7 cells. Kind of series: Cytotoxicity test, LDH secretion, Caco-2/TC7. The series is classed as cell-based. The note with it: 1-100 μM; for measured cytotoxicity (LDH): Caco-2/TC7. The procedure: (§1) 1.2.6. […] To measure the concentration of LDH in the cell lysate, 800 μL of NADH was added to 10 μL of […] and 190 μL of 0.1 M PBS in a plastic cuvette, and the decrease in the absorbance at 340 nm was monitored for 1 min. […] The percentage of cytotoxicity could be established with the formula: […]
(§2) The cytotoxicity of the tested and control compounds was evaluated using a measurement test of the LDH (Lactate Dehydrogenase) secretion. This test is based on the measurement of the amount of LDH secreted by the cells in their supernatant, compared to the amount of LDH that will remain in the intracellular compartment. This ratio provides an indication of the membrane damage suffered by the cells, and thus of the cytotoxicity of the compound.
(§3) Two methods were used to perform this test: the measurement using an extemporaneously prepared pyruvate/NADH solution, or using the Cytotoxicity Detection Kit^PLUS(LDH) from the manufacturer Roche (Sigma-Aldrich).
(§4) Pyruvate/NADH method: pyruvate/NADH solution prepared with 4.1 mg pyruvic acid (0.62 mM) and 7.7 mg NADH (0.18 mM) in 60 ml of 0.1M PBS (pH 7.4).
(§5) For the measurement of the LDH concentration in the supernatants, 800 μL of NADH was added to 200 μL of supernatant in plastic spectrometry cuvettes, and the decrease in absorbance of the final solution was read at 340 nm for 1 min. For the measurement of the LDH concentration in the cell lysates, 800 μL of NADH was added to 10 μL of cell lysates and 190 μL of 0.1M PBS in plastic spectrometry cuvettes, and the decrease in absorbance of the final solution was read at 340 nm for 1 min. The percentage of LDH secreted was then calculated by the ratio of the decay slopes of the absorbance of the supernatants and of the cell lysates (respectively).
(§6) Cytotoxicity Detection Kit^PLUS (LDH) method: absorbance test performed according to the manufacturer's instructions. The percentage of LDH secreted was then calculated by the formula: […]

The test system of the next series is human lymphocytes. In words: Inhibition of IL-2 secretion by human lymphocytes stimulated by CD2, CD3 and CD28. It counts as cell-based. The note with it: test of FIG. 5.
In a further series the test system is human keratinocytes. Kind of series: Inhibition of IL-8 secretion by human keratinocytes stimulated by IL-17 and TNF-α. It counts as cell-based. The note with it: test of FIG. 4.
The next series deals with Raw264.7 murine cells. Kind of series: Cytotoxicity test, LDH secretion, Raw264.7. The note with it: as early as 50 μM; basal and stimulated conditions. The series is classed as cell-based. The procedure: as §1, §2, §3, §4, §5, §6

T1 sequence (P25084 whole entry): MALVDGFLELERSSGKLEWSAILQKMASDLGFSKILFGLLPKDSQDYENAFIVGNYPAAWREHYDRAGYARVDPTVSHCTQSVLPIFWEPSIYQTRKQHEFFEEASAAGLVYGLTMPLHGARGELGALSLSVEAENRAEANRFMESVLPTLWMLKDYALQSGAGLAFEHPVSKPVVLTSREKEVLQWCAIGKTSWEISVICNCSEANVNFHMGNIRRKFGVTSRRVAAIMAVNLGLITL

The compound `CCCCCCCCCC(=O)CC(=O)NC1CCSC1=O` (racemic) [I-1, 3-oxo-N-(tetrahydro-2-oxo-3-thienyl)-dodecanamide] had an EC50 at LasR receptor of 0.125 µM. Moreover, the “comparative survival of E. coli K12” value in the series with E. coli K12 strain is “No significant differences”. For the same compound, the “activity on IL-1β-stimulated Caco-2/TC7 cells compared with natural 3-oxo-C12 HSL” value with Caco-2/TC7 cells [1] (IL-1β stimulation, no concentration range stated) is on record as “an activity equivalent to that of the natural 3-oxo-C12 HSL”; with Caco-2/TC7 cells [1] (at the 100 μM dose), “more active than the latter”.
In the case of `CCCCCCCCCC(=O)CC(=O)N[C@H]1CCOC1=O` [3-oxo-C12-HSL, N-(3(S)-oxododecanoyl) homoserine lactone, reference compound], in the series with Caco-2/TC7 cells [2], the “measured cytotoxicity (LDH)” value is listed as no more than 2.5%. For the same compound, in the series on human lymphocytes, the “activity on IL-2 secretion by lymphocytes” value was “inactive”. Also, the “activity on IL-8 secretion by keratinocytes” value with human keratinocytes is “inactive”. The “secreted LDH, Raw264.7” value with Raw264.7 murine cells is listed as “an increase in secreted LDH”.
Regarding `CC/C=C\C/C=C\CCC(=O)CC(=O)N[C@H]1CCOC1=O` [3-oxo-C12:2-HSL, reference compound], the “tolerance, Caco-2/TC7” value in the series on Caco-2/TC7 cells [2] (presence and absence of pro-inflammatory cytokines) was “well tolerated”. The “measured cytotoxicity (LDH)” value in the series on Caco-2/TC7 cells [2] is no more than 1.5%. Also, in the series on human lymphocytes, the “activity on IL-2 secretion by lymphocytes” value is “inactive”. Further, the “activity on IL-8 secretion by keratinocytes” value with human keratinocytes was “inactive”. Besides, in the series on E. coli K12 strain (1-100 μM, 18 h of incubation), the “bactericidal effect on E. coli K12” value is recorded as “No toxic effect”. Moreover, the “secreted LDH, Raw264.7” value with Raw264.7 murine cells is reported as “an increase in secreted LDH”.
Take `CCCC(=O)N[C@H]1CCOC1=O` [C4-HSL, reference compound]: the EC50 on LasR receptor (bacterial reporter strain, read-out: EC50 of LasR receptor activation) is greater than 1000 µM.
For the compound `CCCCCCCCCC(=O)CC(=O)N[C@H]1CCSC1=O` [I-3, 3-oxo N-[(3S)-tetrahydro-2-oxo-3-thienyl]-dodecanamide], in the series with E. coli K12 strain, the “comparative survival of E. coli K12” value was “No significant differences”. The “decrease in the inflammatory secretion” value in the series with Caco-2/TC7 cells [1] (at 5 μM, IL-1β-stimulated Caco-2/TC7) is 27%.

The values are drawn from US20220411397A1, “ANALOGUES OF N-ACYL-HOMOSERINE LACTONES AND PHARMACEUTICAL COMPOSITION COMPRISING SAME” (SORBONNE UNIVERSITE, priority 2019, published 2022).
